One test deals with Melanocortin receptor 5 (Homo sapiens, UniProt P33032). Format: cell membranes, HEK293, Membrane.
The target in test [1] is Tyrosine-protein kinase Lck (Homo sapiens, UniProt P06239). The experiment in a line: DRUGMATRIX: Protein Tyrosine Kinase, LCK enzyme inhibition (substrate: Poly(Glu:Tyr)). The test is classed as cell-based, Insect cells. The conditions noted are these: Not Active = under 50% inhibition at 10 µM.
The target of another test is T1, Endothelin-1 receptor (Homo sapiens, UniProt P25101). Note: in other assays of this panel Not Active means under 50% inhibition at 10 µM.
T1 sequence (P25101 whole entry): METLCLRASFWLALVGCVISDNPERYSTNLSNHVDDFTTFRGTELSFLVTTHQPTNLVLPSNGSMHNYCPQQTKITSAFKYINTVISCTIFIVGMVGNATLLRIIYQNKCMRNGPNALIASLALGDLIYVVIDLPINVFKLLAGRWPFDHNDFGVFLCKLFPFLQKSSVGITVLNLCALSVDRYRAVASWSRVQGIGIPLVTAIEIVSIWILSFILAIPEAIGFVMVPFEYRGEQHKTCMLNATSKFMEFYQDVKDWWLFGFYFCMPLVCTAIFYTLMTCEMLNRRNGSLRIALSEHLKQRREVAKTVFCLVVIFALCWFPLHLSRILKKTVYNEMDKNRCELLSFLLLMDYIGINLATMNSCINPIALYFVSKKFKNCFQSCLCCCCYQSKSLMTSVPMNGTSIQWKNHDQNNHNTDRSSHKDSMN
The test is classed as cell membranes, Membrane. The conditions noted are these: cho-k1.

Test [2] has as its target Aldo-keto reductase family 1 member B1 (Rattus norvegicus, UniProt P07943). The experiment in a line: biochemical. Format: tissue-based, Lens of camera-type eye.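 Note: inhibition of aldose reductase enzyme activity, measured with DL-glyceraldehyde as the substrate; in other assays of this panel Not Active means under 50% inhibition at 10 µM.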
The target of test [3] is T2, Alpha-1A adrenergic receptor (Rattus norvegicus, UniProt P43140).
T2 sequence (P43140 whole entry): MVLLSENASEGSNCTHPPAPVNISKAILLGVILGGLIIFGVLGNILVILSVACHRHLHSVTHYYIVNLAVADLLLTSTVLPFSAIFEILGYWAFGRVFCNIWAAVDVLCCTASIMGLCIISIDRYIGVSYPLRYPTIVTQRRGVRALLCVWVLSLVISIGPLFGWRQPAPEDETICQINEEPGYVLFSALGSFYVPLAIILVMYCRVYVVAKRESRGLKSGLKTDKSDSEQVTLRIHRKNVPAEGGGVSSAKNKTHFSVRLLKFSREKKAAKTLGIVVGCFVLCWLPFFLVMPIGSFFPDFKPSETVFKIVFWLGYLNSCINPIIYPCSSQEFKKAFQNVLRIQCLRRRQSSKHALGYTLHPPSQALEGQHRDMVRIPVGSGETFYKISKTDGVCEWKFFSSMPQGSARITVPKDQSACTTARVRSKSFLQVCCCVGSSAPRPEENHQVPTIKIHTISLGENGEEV
The experiment in a line: DRUGMATRIX: Alpha-1A adrenergic receptor radioligand binding (ligand: prazosin). The test is classed as cell membranes, Wistar, Submaxillary gland, Membrane. Particulars: Not Active = under 50% inhibition at 10 µM; for Ki: read-out: Ki.

Test [4] has as its target T3, Vasoactive intestinal polypeptide receptor 1 (Homo sapiens, UniProt P32241). Note: in other assays of this panel Not Active means under 50% inhibition at 10 µM.
T3 sequence (P32241 whole entry): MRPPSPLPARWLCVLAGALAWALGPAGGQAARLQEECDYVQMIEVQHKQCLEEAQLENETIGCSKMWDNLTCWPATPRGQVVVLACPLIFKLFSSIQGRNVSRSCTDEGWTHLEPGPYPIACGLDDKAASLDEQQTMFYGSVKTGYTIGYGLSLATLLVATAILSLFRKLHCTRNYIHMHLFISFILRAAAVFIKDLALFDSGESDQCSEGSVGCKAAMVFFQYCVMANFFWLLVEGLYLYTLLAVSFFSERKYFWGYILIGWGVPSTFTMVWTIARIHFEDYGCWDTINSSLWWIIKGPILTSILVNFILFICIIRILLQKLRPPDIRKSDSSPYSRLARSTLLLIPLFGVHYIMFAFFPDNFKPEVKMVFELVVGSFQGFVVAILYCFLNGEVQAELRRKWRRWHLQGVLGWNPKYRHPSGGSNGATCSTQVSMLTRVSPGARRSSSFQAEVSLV
The test is classed as cell membranes, Membrane. Particulars: ht-29.

The results in this text go back to ChEMBL document CHEMBL1909046, “DrugMatrix in vitro pharmacology data”.

Sequence of Melanocortin receptor 5 (P33032 whole entry): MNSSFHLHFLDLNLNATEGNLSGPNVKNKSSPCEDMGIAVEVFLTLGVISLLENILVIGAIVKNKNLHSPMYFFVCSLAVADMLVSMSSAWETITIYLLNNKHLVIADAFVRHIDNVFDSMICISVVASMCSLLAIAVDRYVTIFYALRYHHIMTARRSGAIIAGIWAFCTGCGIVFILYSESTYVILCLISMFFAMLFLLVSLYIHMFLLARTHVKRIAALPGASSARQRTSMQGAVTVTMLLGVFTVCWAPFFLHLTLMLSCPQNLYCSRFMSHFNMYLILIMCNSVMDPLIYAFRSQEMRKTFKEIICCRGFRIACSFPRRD
Sequence of Tyrosine-protein kinase Lck (P06239 whole entry): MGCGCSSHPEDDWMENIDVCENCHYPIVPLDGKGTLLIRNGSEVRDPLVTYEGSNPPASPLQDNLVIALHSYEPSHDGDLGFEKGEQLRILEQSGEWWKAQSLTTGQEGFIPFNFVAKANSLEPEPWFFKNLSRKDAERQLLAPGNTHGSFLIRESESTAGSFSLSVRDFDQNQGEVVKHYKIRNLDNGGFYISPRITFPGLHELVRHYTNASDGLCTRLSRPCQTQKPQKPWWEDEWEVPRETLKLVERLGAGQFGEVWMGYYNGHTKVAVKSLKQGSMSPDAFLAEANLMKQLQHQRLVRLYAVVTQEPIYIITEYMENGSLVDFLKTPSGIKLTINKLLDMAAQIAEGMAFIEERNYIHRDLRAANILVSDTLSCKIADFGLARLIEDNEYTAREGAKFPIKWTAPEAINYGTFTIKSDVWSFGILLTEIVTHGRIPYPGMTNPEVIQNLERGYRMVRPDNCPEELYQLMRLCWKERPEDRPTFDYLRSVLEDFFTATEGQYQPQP

In the case of `CCCCC(=O)N(Cc1ccc(-c2ccccc2-c2nnn[nH]2)cc1)[C@H](C(=O)O)C(C)C`, the 50% inhibitory concentration (IC50) result (on Melanocortin receptor 5 (hek293); in test [1] (insect cells); at Endothelin-1 receptor; in test [2]; in test [3]; in test [4]) was “Not Active” in each case.

With `O=C(O)COc1ccc(C(=O)c2cccs2)c(Cl)c1Cl`, the 50% inhibitory concentration (IC50) entry was “Not Active” against Melanocortin receptor 5 (hek293); “Not Active” in test [1] (insect cells); “Not Active” on Endothelin-1 receptor; 3.21 µM in test [2] (read-out: IC50); “Not Active” in test [3]; “Not Active” in test [4].

Consider `CN1[C@@H]2CC[C@H]1C[C@@H](OC(c1ccccc1)c1ccccc1)C2` [BENZTROPINE], for which the concentration for half-maximal inhibition (IC50) result against Melanocortin receptor 5 (hek293) was “Not Active”; in test [1] (insect cells), “Not Active”; at Endothelin-1 receptor, “Not Active”; in test [2], “Not Active”; in test [3] (read-out: IC50), 0.142 µM; in test [4] it was “Not Active”. For the same compound, the inhibition constant Ki in test [3] turned out to be 0.057 µM.

In the case of `C[C@@](Cc1ccc(O)c(O)c1)(NN)C(=O)O.O` [CARBIDOPA], the IC50 result on Melanocortin receptor 5 (hek293) is “Not Active”; in test [1] (read-out: IC50), 6.8 µM; against Endothelin-1 receptor, “Not Active”; in test [2], “Not Active”; in test [3] it was “Not Active”; in test [4], “Not Active”.

On to `CN1CCN(C2=Nc3cc(Cl)ccc3Nc3ccccc32)CC1` [CLOZAPINE], for which the IC50 entry (on Melanocortin receptor 5 (hek293); in test [1] (insect cells); against Endothelin-1 receptor; in test [2]; in test [4]) was “Not Active” in each case.

For the compound `CC(C)NC[C@@H](O)COc1cccc2ccccc12` [DEXPROPRANOLOL], the half-maximal inhibitory concentration (IC50) result (against Melanocortin receptor 5 (hek293); in test [1] (insect cells); against Endothelin-1 receptor; in test [2]; in test [3]; in test [4]) was “Not Active” in each case.

As for `CC(C)NC[C@H](O)COc1cccc2ccccc12` [LEVOPROPRANOLOL], the IC50 result (on Melanocortin receptor 5 (hek293); in test [1] (insect cells); against Endothelin-1 receptor; in test [2]; in test [3]; in test [4]) was “Not Active” in each case.

For `O=C(O)CCCCC1CCSS1` (stereo not drawn) [LIPOIC ACID, ALPHA], the IC50 result (at Melanocortin receptor 5 (hek293); in test [1] (insect cells); at Endothelin-1 receptor; in test [2]; in test [3]; in test [4]) was “Not Active” in each case.

For `CN(C)C(=O)C(CCN1CCC(O)(c2ccc(Cl)cc2)CC1)(c1ccccc1)c1ccccc1` [LOPERAMIDE], the IC50 result against Melanocortin receptor 5 (hek293) was “Not Active”; in test [1] (insect cells), “Not Active”; at Endothelin-1 receptor, “Not Active”; in test [2] it was “Not Active”; in test [3] (read-out: IC50), 6.22 µM; in test [4], “Not Active”. Moreover, the inhibitory constant (Ki) in test [3] was determined as 2.52 µM.

On to `Clc1ccc(COC(Cn2ccnc2)c2ccc(Cl)cc2Cl)c(Cl)c1` (centres undefined) [MICONAZOLE], for which the IC50 is 22.6 µM on Melanocortin receptor 5 (read-out: IC50); “Not Active” in test [1] (insect cells); “Not Active” on Endothelin-1 receptor; “Not Active” in test [2]; “Not Active” in test [3]; “Not Active” in test [4]. Moreover, the inhibition constant (Ki) at Melanocortin receptor 5 (read-out: Ki) came out at 21.2 µM.

For the compound `Oc1ccc2c3c1O[C@H]1[C@@H](O)CC[C@@]4(O)[C@@H](C2)N(CC2CCC2)CC[C@]314` [NALBUPHINE], the IC50 result (at Melanocortin receptor 5 (hek293); in test [1] (insect cells); on Endothelin-1 receptor; in test [2]; in test [3]; in test [4]) was “Not Active” in each case.

`C[C@]12C=CC(=O)C=C1CC[C@@H]1[C@@H]2C(=O)C[C@@]2(C)[C@H]1CC[C@]2(O)C(=O)CO` [PREDNISONE]: the IC50 result (on Melanocortin receptor 5 (hek293); in test [1] (insect cells); against Endothelin-1 receptor; in test [2]; in test [3]; in test [4]) was “Not Active” throughout.

`OCCOCCN1CCN(C2=Nc3ccccc3Sc3ccccc32)CC1` [QUETIAPINE]: the IC50 result (on Melanocortin receptor 5 (hek293); in test [1] (insect cells); at Endothelin-1 receptor; in test [2]; in test [4]) was “Not Active” throughout.

In the case of `COC(=O)[C@H]1[C@H]2C[C@@H]3c4[nH]c5cc(OC)ccc5c4CCN3C[C@H]2C[C@@H](OC(=O)c2cc(OC)c(OC)c(OC)c2)[C@@H]1OC` [RESERPINE], the IC50 result (against Melanocortin receptor 5 (hek293); in test [1] (insect cells); on Endothelin-1 receptor; in test [2]; in test [3]; in test [4]) was “Not Active” throughout.

In the case of `O=C(O)c1ccccc1O` [SALICYLIC ACID], the IC50 entry (on Melanocortin receptor 5 (hek293); in test [1] (insect cells); against Endothelin-1 receptor; in test [2]; in test [3]; in test [4]) was “Not Active” in each case.

`C[S+]([O-])c1ccc(-c2nc(-c3ccncc3)c(-c3ccc(F)cc3)[nH]2)cc1` (centres undefined) [SB-203580]: the IC50 result (at Melanocortin receptor 5 (hek293); at Endothelin-1 receptor; in test [2]; in test [3]; in test [4]) was “Not Active” in each case.

Take `CC1CCC(NC(=O)N(CCCl)N=O)CC1` (centres undefined) [SEMUSTINE]: the IC50 result (against Melanocortin receptor 5 (hek293); in test [1] (insect cells); against Endothelin-1 receptor; in test [2]; in test [3]; in test [4]) was “Not Active” each time.

Take `O=C1C[C@@H]2OCC=C3CN4CC[C@]56c7ccccc7N1[C@H]5[C@H]2[C@H]3C[C@H]46` [STRYCHNINE]: the 50% inhibitory concentration (IC50) result (on Melanocortin receptor 5 (hek293); in test [1] (insect cells); at Endothelin-1 receptor; in test [2]; in test [3]; in test [4]) was “Not Active” in each case.

As to `C[N+](C)(C)CCOC(=O)CCC(=O)OCC[N+](C)(C)C.[Cl-].[Cl-]` [SUCCINYLCHOLINE CHLORIDE], the IC50 entry (on Melanocortin receptor 5 (hek293); in test [1] (insect cells); at Endothelin-1 receptor; in test [2]; in test [3]; in test [4]) was “Not Active” in each case.

Turning to `Nc1ccc(S(=O)(=O)NC(=O)c2ccccc2)cc1` [SULFABENZAMIDE], the IC50 entry (at Melanocortin receptor 5 (hek293); in test [1] (insect cells); at Endothelin-1 receptor; in test [2]; in test [3]; in test [4]) was “Not Active” throughout.

`CCCCCCCCNC(C)C(O)c1ccc(SC(C)C)cc1` (centres undefined) [SULOCTIDIL]: the IC50 entry (at Melanocortin receptor 5 (hek293); in test [1] (insect cells); against Endothelin-1 receptor; in test [2]; in test [3]; in test [4]) was “Not Active” throughout.

On to `O=c1[nH]c(=O)n(C2CCCO2)cc1F` (centres undefined) [TEGAFUR], for which the IC50 result (at Melanocortin receptor 5 (hek293); in test [1] (insect cells); at Endothelin-1 receptor; in test [2]; in test [3]; in test [4]) was “Not Active” throughout.

Regarding `CC(=N)S` [THIOACETAMIDE], the IC50 entry (against Melanocortin receptor 5 (hek293); in test [1] (insect cells); at Endothelin-1 receptor; in test [2]; in test [3]; in test [4]) was “Not Active” in each case.

Turning to `Cc1ccc(C(=O)c2ccc(CC(=O)O)n2C)cc1` [TOLMETIN], the IC50 entry on Melanocortin receptor 5 (hek293) is “Not Active”; in test [1] (insect cells), “Not Active”; at Endothelin-1 receptor it was “Not Active”; in test [2] (read-out: IC50), 2.15 µM; in test [3], “Not Active”; in test [4], “Not Active”.
